According to patent publication US10766869B2, “Triazoles for the treatment of demyelinating dieases” (Vertex Pharmaceuticals Incorporated, priority 2015, dated 2020):
Read-outs that look alike come from different tables or passages of the source.

Test system: primary rat mixed cortical cells
Experiment: In vitro myelination assay (MBP positive myelin strands, fold myelin pixels above background)
Format: cell-based
Details: Rattus norvegicus; for fold induction at 1 µM: 1.0 μM compound; for fold induction at 10 µM: 10.0 μM compound
In short: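 Mixed cortical culture, P1 rat, 87,500-95,000 cells/well; compound present from seeding, refreshed days 6 and 10; 14 d, 37 °C, 5% CO2. Day 14: PFA fix, anti-MBP + Hoechst. Read-out: fold MBP myelin pixels over untreated, tested at 1.0 and 10.0 μM.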

[1] = relative to baseline of no added compound, read-out: Fold myelin pixels above background, 1.0 μM
[2] = relative to baseline of no added compound, read-out: Fold myelin pixels above background, 10.0 μM
[3] = relative to baseline of no added compound, read-out: Fold myelin pixels above background
[4] = read-out: Fold myelin pixels above background relative to baseline of no added compound

Structure (SMILES): CCc1cc(Nc2ncn(-c3ccnc(OC)n3)n2)cc(N2CCN(C3COC3)CC2)c1 [Compound 314, N-[3-ethyl-5-[4-(oxetan-3-yl)piperazin-1-yl]phenyl]-1-(2-methoxypyrimidin-4-yl)-1,2,4-triazol-3-amine]
- fold induction at 1 µM [1]: 10 to 100
- fold induction at 10 µM [2]: 10 to 100

Structure (SMILES): Cc1cc(Nc2ncn(-c3cccc(C(F)(F)F)c3)n2)cc(OCCN2CCOCC2)c1 [Compound 575, N-[3-methyl-5-(2-morpholinoethoxy)phenyl]-1-[3-(trifluoromethyl)phenyl]-1,2,4-triazol-3-amine]
- fold induction at 1 µM [3]: 10 to 100
- fold induction at 10 µM [3]: ≤ 1

Structure (SMILES): Cc1cc(Nc2ncn(-c3cc(F)cc(F)c3)n2)nc(N2CC(C(C)(C)O)C2)c1 [Compound 572, 2-[1-[6-[[1-(3,5-difluorophenyl)-1,2,4-triazol-3-yl]amino]-4-methyl-2-pyridyl]azetidin-3-yl]propan-2-ol]
- fold induction at 1 µM [3]: ≤ 1
- fold induction at 10 µM [3]: 1 to 10

Structure (SMILES): Cc1cc(Nc2ncn(-c3cc(F)cc(F)c3)n2)cc(OC2CCCOC2)c1 (stereo not shown) [Compound 635, 1-(3,5-difluorophenyl)-N-(3-methyl-5-tetrahydropyran-3-yloxy-phenyl)-1,2,4-triazol-3-amine]
- fold induction at 1 µM [3]: 10 to 100
- fold induction at 10 µM [3]: 1 to 10

Structure (SMILES): Cc1cc(Nc2ncn(-c3cc(F)cc(F)c3)n2)cc(N[C@H]2C[C@@H](N3CCOCC3)C2)c1 (single isomer, unassigned) [Compound 861, N1-[1-(3,5-difluorophenyl)-1,2,4-triazol-3-yl]-5-methyl-N3-(3-morpholinocyclobutyl)benzene-1,3-diamine]
- fold induction at 1 µM [4]: 10 to 100
- fold induction at 10 µM [4]: ≤ 1

Structure (SMILES): Cc1cc(Nc2ncn(-c3cc(F)cc(F)c3)n2)cc(N2CC(CC#N)C2)c1 [Compound 921, 2-[1-[3-[[1-(3,5-difluorophenyl)-1,2,4-triazol-3-yl]amino]-5-methyl-phenyl]azetidin-3-yl]acetonitrile]
- fold induction at 1 µM [4]: 10 to 100
- fold induction at 10 µM [4]: 1 to 10

Structure (SMILES): Cc1cc(Nc2ncn(-c3ccccn3)n2)cc(N2CCN(C)CC2)c1 [Compound 138, N-[3-methyl-5-(4-methylpiperazin-1-yl)phenyl]-1-(2-pyridyl)-1,2,4-triazol-3-amine]
- fold induction at 1 µM [1]: 10 to 100
- fold induction at 10 µM [2]: 100 to 1000

Structure (SMILES): Cc1cc(Nc2ncn(-c3ccc(F)cc3)n2)cc(N2CCCC2)c1 [Compound 269, 1-(4-fluorophenyl)-N-(3-methyl-5-pyrrolidin-1-yl-phenyl)-1,2,4-triazol-3-amine]
- fold induction at 1 µM [1]: 1 to 10
- fold induction at 10 µM [2]: 10 to 100

Structure (SMILES): COc1cc(Nc2ncn(-c3cccc(C(F)F)c3)n2)cc(N2CCN(C3COC3)CC2)c1 [Compound 693, 1-[3-(difluoromethyl)phenyl]-N-[3-methoxy-5-[4-(oxetan-3-yl)piperazin-1-yl]phenyl]-1,2,4-triazol-3-amine]
- fold induction at 1 µM [3]: 1 to 10
- fold induction at 10 µM [3]: ≤ 1

Structure (SMILES): Cc1cc(Nc2ncn(-c3ccc(Cl)c(F)c3)n2)nc(N2CCN(C3COC3)CC2)c1 [Compound 749, N-[1-(4-chloro-3-fluoro-phenyl)-1,2,4-triazol-3-yl]-4-methyl-6-[4-(oxetan-3-yl)piperazin-1-yl]pyridin-2-amine]
- fold induction at 1 µM [3]: 10 to 100
- fold induction at 10 µM [3]: 10 to 100

Structure (SMILES): [2H]C1(N2C([2H])([2H])C([2H])([2H])N(c3cc(C)cc(Nc4ncn(-c5cc(F)cc(F)c5)n4)c3)C([2H])([2H])C2([2H])[2H])COC1 [Compound 997, 1-(3,5-difluorophenyl)-N-[3-methyl-5-[2,2,3,3,5,5,6,6-octadeuterio-4-(3-deuteriooxetan-3-yl)piperazin-1-yl]phenyl]-1,2,4-triazol-3-amine]
- fold induction at 1 µM [4]: 100 to 1000
- fold induction at 10 µM [4]: ≤ 1

Structure (SMILES): Cc1cc(Nc2ncn(-c3ccccc3)n2)cc(N2CCN(c3ccccc3F)CC2)c1 [Compound 455, N-[3-[4-(2-fluorophenyl)piperazin-1-yl]-5-methyl-phenyl]-1-phenyl-1,2,4-triazol-3-amine]
- fold induction at 1 µM [3]: ≤ 1
- fold induction at 10 µM [3]: 10 to 100

Structure (SMILES): Cc1cc(Nc2ncn(-c3cc(F)cc(F)c3)n2)c(F)c(N2CC3(CNC3)C2)c1 [Compound 688, N-[3-(2,6-diazaspiro[3.3]heptan-2-yl)-2-fluoro-5-methyl-phenyl]-1-(3,5-difluorophenyl)-1,2,4-triazol-3-amine]
- fold induction at 1 µM [3]: 1 to 10
- fold induction at 10 µM [3]: ≤ 1

Structure (SMILES): COc1cccc(-n2cnc(Nc3cc(C)cc(N4CCN(C)CC4)c3)n2)c1 [Compound 94, 1-(3-methoxyphenyl)-N-[3-methyl-5-(4-methylpiperazin-1-yl)phenyl]-1,2,4-triazol-3-amine]
- fold induction at 1 µM [1]: 100 to 1000
- fold induction at 10 µM [2]: 1 to 10

Structure (SMILES): Cc1cc(Nc2ncn(-c3ccccc3)n2)cc(NC2CCN(C3COC3)CC2)c1 [Compound 334, 5-methyl-N1-[1-(oxetan-3-yl)-4-piperidyl]-N3-(1-phenyl-1,2,4-triazol-3-yl)benzene-1,3-diamine]
- fold induction at 1 µM [1]: 100 to 1000
- fold induction at 10 µM [2]: 1000 to 10000

Structure (SMILES): CCc1cc(Nc2ncn(-c3ccc(C)c(F)c3)n2)cc(N2CCN(C3COC3)CC2)c1 [Compound 761, N-[3-ethyl-5-[4-(oxetan-3-yl)piperazin-1-yl]phenyl]-1-(3-fluoro-4-methyl-phenyl)-1,2,4-triazol-3-amine]
- fold induction at 1 µM [3]: 1 to 10
- fold induction at 10 µM [3]: ≤ 1

Structure (SMILES): Fc1ccc(-n2cnc(Nc3cc(C4CCOCC4)nc(C4CC4)c3)n2)cc1F [Compound 150, 2-cyclopropyl-N-(1-(3,4-difluorophenyl)-1H-1,2,4-triazol-3-yl)-6-(tetrahydro-2H-pyran-4-yl)pyridin-4-amine]
- fold induction at 1 µM [1]: 1000 to 10000
- fold induction at 10 µM [2]: ≤ 1

Structure (SMILES): Cc1cc(NCC2CCN(C3CCOCC3)CC2)cc(Nc2ncn(-c3cc(F)cc(F)c3)n2)c1 [Compound 1046, N1-[1-(3,5-difluorophenyl)-1,2,4-triazol-3-yl]-5-methyl-N3-[(1-tetrahydropyran-4-yl-4-piperidyl)methyl]benzene-1,3-diamine]
- fold induction at 1 µM [4]: 1 to 10
- fold induction at 10 µM [4]: ≤ 1

Structure (SMILES): [2H]C([2H])([2H])C(=O)N1C([2H])([2H])C([2H])([2H])N(c2cc(C)cc(Nc3ncn(-c4cc(F)cc(F)c4)n3)c2)C([2H])([2H])C1([2H])[2H] [Compound 959, 2,2,2-trideuterio-1-[2,2,3,3,5,5,6,6-octadeuterio-4-[3-[[1-(3,5-difluorophenyl)-1,2,4-triazol-3-yl]amino]-5-methyl-phenyl]piperazin-1-yl]ethanone]
- fold induction at 1 µM [4]: 1 to 10
- fold induction at 10 µM [4]: ≤ 1

Structure (SMILES): Cc1cc(Nc2ncn(-c3cccnc3)n2)cc(NC2CCN(C3COC3)CC2)c1 [Compound 342, 5-methyl-N1-[1-(oxetan-3-yl)-4-piperidyl]-N3-[1-(3-pyridyl)-1,2,4-triazol-3-yl]benzene-1,3-diamine]
- fold induction at 1 µM [1]: 1000 to 10000
- fold induction at 10 µM [2]: 10 to 100

Structure (SMILES): Cc1cc(Nc2ncn(-c3cc(F)cc(F)c3)n2)nc(N2CCN(C(C)(C)C)CC2)c1 [Compound 702, 6-(4-tert-butylpiperazin-1-yl)-N-[1-(3,5-difluorophenyl)-1,2,4-triazol-3-yl]-4-methyl-pyridin-2-amine]
- fold induction at 1 µM [3]: 10 to 100
- fold induction at 10 µM [3]: 10 to 100

Structure (SMILES): CCc1cc(Nc2ncn(-c3ccc(C)c(Cl)c3)n2)cc(N2CCN(C3COC3)CC2)c1 [Compound 715, 1-(3-chloro-4-methyl-phenyl)-N-[3-ethyl-5-[4-(oxetan-3-yl)piperazin-1-yl]phenyl]-1,2,4-triazol-3-amine]
- fold induction at 1 µM [3]: 10 to 100
- fold induction at 10 µM [3]: 1 to 10

Structure (SMILES): Cc1cc(Nc2ncn(-c3cc(F)cc(F)c3)n2)cc(C2(O)CCN(C3COC3)C2)c1 (stereo not shown) [Compound 416, 3-[3-[[1-(3,5-difluorophenyl)-1,2,4-triazol-3-yl]amino]-5-methyl-phenyl]-1-(oxetan-3-yl)pyrrolidin-3-ol]
- fold induction at 1 µM [3]: 100 to 1000
- fold induction at 10 µM [3]: 10 to 100

Structure (SMILES): Cc1cc(Nc2ncn(-c3cc(F)cc(F)c3)n2)cc(N2CCOC(COCC3CC3)C2)c1 (stereo not shown) [Compound 1087, N-[3-[2-(cyclopropylmethoxymethyl)morpholin-4-yl]-5-methyl-phenyl]-1-(3,5-difluorophenyl)-1,2,4-triazol-3-amine]
- fold induction at 1 µM [4]: 1 to 10
- fold induction at 10 µM [4]: 1 to 10

Structure (SMILES): CCn1cnc(Nc2cc(C)cc(Nc3ncn(-c4ccccc4)n3)c2)n1 [Compound 604, N1-(1-ethyl-1,2,4-triazol-3-yl)-5-methyl-N3-(1-phenyl-1,2,4-triazol-3-yl)benzene-1,3-diamine]
- fold induction at 1 µM [3]: 10 to 100
- fold induction at 10 µM [3]: ≤ 1

Structure (SMILES): CCc1cc(Nc2ncn(-c3cccc(F)c3)n2)cc(N2CC(N3CCOCC3)C2)c1 [Compound 15, N-[3-ethyl-5-(3-morpholinoazetidin-1-yl)phenyl]-1-(3-fluorophenyl)-1,2,4-triazol-3-amine]
- fold induction at 1 µM [1]: 100 to 1000
- fold induction at 10 µM [2]: 10 to 100

Structure (SMILES): CCc1cc(Nc2ncn(-c3cc(C)ncn3)n2)cc(N2CCN(C3COC3)CC2)c1 [Compound 58, N-[3-ethyl-5-[4-(oxetan-3-yl)piperazin-1-yl]phenyl]-1-(6-methylpyrimidin-4-yl)-1,2,4-triazol-3-amine]
- fold induction at 1 µM [1]: 100 to 1000
- fold induction at 10 µM [2]: 100 to 1000

Structure (SMILES): Cc1cc(Nc2ncn(-c3cc(F)cc(F)c3)n2)cc(N2CCC(N3CCCC3)CC2)c1 [Compound 1038, 1-(3,5-difluorophenyl)-N-[3-methyl-5-(4-pyrrolidin-1-yl-1-piperidyl)phenyl]-1,2,4-triazol-3-amine]
- fold induction at 1 µM [4]: 1 to 10
- fold induction at 10 µM [4]: 10 to 100

Structure (SMILES): Cc1cc(N2CCN(C3COC3)CC2)cc(Nc2ncn(-c3cc(F)cc(F)c3)n2)c1C [Compound 425, 1-(3,5-difluorophenyl)-N-[2,3-dimethyl-5-[4-(oxetan-3-yl)piperazin-1-yl]phenyl]-1,2,4-triazol-3-amine]
- fold induction at 1 µM [3]: 1 to 10
- fold induction at 10 µM [3]: 100 to 1000
